Patent publication US9765105B2, “Macrolide compound” (Pulike Biological Engineering, Inc., priority 2013, dated 2017)

Assays:
Test in all cases: in vitro susceptibility, MIC by mini broth dilution
Format in all cases: cell-based
[1] = system: Staphylococcus aureus CVCC26003; settings: strain CVCC26003
Procedure, shortened: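 MICs were determined by mini broth dilution under NCCLS standards in CAMHB, using revived S. aureus CVCC26003 subcultured 20 h at 35° C. Compounds were two-fold serially diluted in DMSO across 11 wells, with duplicate rows. Bacterial suspension was diluted 1:200 in medium before inoculation.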

[2] = system: Pasteurella multocida CVCC399; settings: strain CVCC399
Procedure, shortened: (§1)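 MICs determined by mini broth dilution following NCCLS standards, using two-fold serial dilutions of compound in DMSO across 11 gradients, in duplicate rows. Strains were revived and subcultured at 35 °C for 20 h. Bacterial suspension was diluted 1:200 in liquid medium.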

[3] = system: Actinobacillus pleuropneumoniae CVCC262; settings: strain CVCC262
Procedure, shortened: as §1

[4] = system: Streptococcus equines CVCC556; settings: strain CVCC556
Procedure, shortened: as §1

[5] = system: Haemophilus parasuis
Procedure, shortened: as §1

Structure (SMILES)	MIC values, Staphylococcus aureus CVCC26003 [1]	MIC values, Pasteurella multocida CVCC399 [2]	MIC values, Actinobacillus pleuropneumoniae CVCC262 [3]	MIC values, Streptococcus equines CVCC556 [4]	MIC values, Haemophilus parasuis [5]
CC[C@H]1OC(=O)[C@H](C)[C@@H](O[C@H]2C[C@@](C)(OC)[C@](O)(CNN3CCOCC3)[C@H](C)O2)[C@H](C)[C@@H](O[C@@H]2O[C@H](C)C[C@H](N(C)C)[C@H]2O)[C@](C)(O)C[C@@H](C)NC[C@H](C)[C@@H](O)[C@]1(C)O [syzx-48, (2R,3S,4R,5S,8R,10R,11R,12S,13S,14R)-13-[(2,6-dideoxy-3-C-methyl-3-O-methyl-4-C-[(morpholin-4-yl-amino)-methyl]-α-L-ribopyranosyl)oxy]-2-ethyl-3,4,10-trihydroxy-3,5,8,10,12,14-hexamethyl-11-[[3,4,6-trideoxy-3-(dimethylamino)-β-D-xylo-hexopyranosy]oxy]-1-oxa-7-azacyclopentadecan-15-one]	0.5 ug/mi	1 ug/mi	16 ug/mi	0.5 ug/mi	≦0.25 ug/mi
CCCN1CC(C)C(O)C(C)(O)C(CC)OC(=O)C(C)C(OC2CC(C)(OC)C(O)(CNNc3ccccc3)C(C)O2)C(C)C(OC2OC(C)CC(N(C)C)C2O)C(C)(O)CC1C (stereo not shown) [syzx-173]	2 ug/mi	4 ug/mi	1 ug/mi	0.25 ug/mi	1 ug/mi
CCCN1C[C@H](C)[C@@H](O)[C@](C)(O)[C@@H](CC)OC(=O)[C@H](C)[C@@H](O[C@H]2C[C@@](C)(OC)[C@](O)(CN(C)CCO)[C@H](C)O2)[C@H](C)[C@@H](O[C@@H]2O[C@H](C)C[C@H](N(C)C)[C@H]2O)[C@](C)(O)C[C@H]1C [syzx-126]	4 ug/mi	2 ug/mi	4 ug/mi	0.5 ug/mi	4 ug/mi
CCCCN(C)C[C@]1(O)[C@H](C)O[C@@H](O[C@H]2[C@H](C)[C@@H](O[C@@H]3O[C@H](C)C[C@H](N(C)C)[C@H]3O)[C@](C)(O)C[C@@H](C)N(CCC)C[C@H](C)[C@@H](O)[C@](C)(O)[C@@H](CC)OC(=O)[C@@H]2C)C[C@@]1(C)OC [syzx-198]	1 ug/mi	4 ug/mi	0.5 ug/mi	0.5 ug/mi	0.5 ug/mi
CCCN1C[C@H](C)[C@@H](O)[C@](C)(O)[C@@H](CC)OC(=O)[C@H](C)[C@@H](O[C@H]2C[C@@](C)(OC)[C@](O)(CNCc3cccc(OC)c3)[C@H](C)O2)[C@H](C)[C@@H](O[C@@H]2O[C@H](C)C[C@H](N(C)C)[C@H]2O)[C@](C)(O)C[C@H]1C [syzx-135]	1 ug/mi	2 ug/mi	1 ug/mi	0.5 ug/mi	0.5 ug/mi
CC[C@H]1OC(=O)[C@H](C)[C@@H](O[C@H]2C[C@@](C)(OC)[C@](O)(CNCc3ccc(F)cc3)[C@H](C)O2)[C@H](C)[C@@H](O[C@@H]2O[C@H](C)C[C@H](N(C)C)[C@H]2O)[C@](C)(O)C[C@@H](C)NC[C@H](C)[C@@H](O)[C@]1(C)O [syzx-8, (2R,3S,4R,5S,8R,10R,11R,12S,13S,14R)-13-[(2,6-dideoxy-3-C-methyl-3-O-methyl-4-C-[(4-fluorobenzylamino)methyl]-α-L-ribopyranosyl)oxy]-2-ethyl-3,4,10-trihydroxy-3,5,8,10,12,14-hexamethyl-11-[[3,4,6-trideoxy-3-(dimethylamino)-β-D-xylo-hexopyranosy]oxy]-1-oxa-7-azacyclopentadecan-15-one]	≦0.25 ug/mi	0.25 ug/mi	0.5 ug/mi	≦0.25 ug/mi	≦0.25 ug/mi
CCCN1C[C@H](C)[C@@H](O)[C@](C)(O)[C@@H](CC)OC(=O)[C@H](C)[C@@H](O[C@H]2C[C@@](C)(OC)[C@](O)(CNc3ccc(Cl)cn3)[C@H](C)O2)[C@H](C)[C@@H](O[C@@H]2O[C@H](C)C[C@H](N(C)C)[C@H]2O)[C@](C)(O)C[C@H]1C [syzx-211]	2 ug/mi	8 ug/mi	4 ug/mi	0.5 ug/mi	4 ug/mi
CCCN1C[C@H](C)[C@@H](O)[C@](C)(O)[C@@H](CC)OC(=O)[C@H](C)[C@@H](O[C@H]2C[C@@](C)(OC)[C@](O)(CNCc3ccc(OC)cc3)[C@H](C)O2)[C@H](C)[C@@H](O[C@@H]2O[C@H](C)C[C@H](N(C)C)[C@H]2O)[C@](C)(O)C[C@H]1C [syzx-118]	0.25 ug/mi	0.25 ug/mi	0.25 ug/mi	0.25 ug/mi	0.25 ug/mi
CCCN1C[C@H](C)[C@@H](O)[C@](C)(O)[C@@H](CC)OC(=O)[C@H](C)[C@@H](O[C@H]2C[C@@](C)(OC)[C@](O)(CNc3cc(Cl)nc(Cl)n3)[C@H](C)O2)[C@H](C)[C@@H](O[C@@H]2O[C@H](C)C[C@H](N(C)C)[C@H]2O)[C@](C)(O)C[C@H]1C [syzx-237]	2 ug/mi	8 ug/mi	4 ug/mi	0.25 ug/mi	4 ug/mi
CC[C@H]1OC(=O)[C@H](C)[C@@H](OC2CC(C)(OC)C(O)(CNC(C)CC(=O)O)C(C)O2)[C@H](C)[C@@H](O[C@@H]2O[C@H](C)C[C@H](N(C)C)[C@H]2O)[C@](C)(O)C[C@@H](C)NC[C@H](C)[C@@H](O)[C@]1(C)O (stereo partly drawn) [syzx-50, 3-({(2R,3S,4R,5S,8R,10R,11R,12S,13S,14R)-6-[-11-[[3,4,6-trideoxy-3-(dimethylamino)-β-D-xylo-hexopyranosy]oxy]-2-ethyl-3,4,10-trihydroxy-3,5,8,10,12,14-hexamethyl-1-oxa-7-azacyclopentadecan-15-one-13-yl-oxy]-3-hydroxy-4-methoxy-2,4-dimethyl-tetrahydropyran-3-yl-methyl}-amino)-butyric acid]	1 ug/mi	1 ug/mi	0.5 ug/mi	1 ug/mi	0.5 ug/mi
CC[C@H]1OC(=O)[C@H](C)[C@@H](O[C@H]2C[C@@](C)(OC)[C@](O)(CNCc3ccccc3F)[C@H](C)O2)[C@H](C)[C@@H](O[C@@H]2O[C@H](C)C[C@H](N(C)C)[C@H]2O)[C@](C)(O)C[C@@H](C)NC[C@H](C)[C@@H](O)[C@]1(C)O [syzx-92, (2R,3S,4R,5S,8R,10R,11R,12S,13S,14R)-13-[(2,6-dideoxy-3-C-methyl-3-O-methyl-4-C-[(2-fluorobenzyl-amino)-methyl]-α-L-ribopyranosyl)oxy]-2-ethyl-3,4,10-trihydroxy-3,5,10,12,14-hexamethyl-11-[[3,4,6-trideoxy-3-(dimethylamino)-β-D-xylo-hexopyranosy]oxy]-1-oxa-7-azacyclopentadecan-15-one]	1 ug/mi	2 ug/mi	0.5 ug/mi	0.25 ug/mi	0.5 ug/mi
